Like-named read-outs stand apart in the source and are kept apart here.
What was measured:
[1] = log P determination by HPLC (EEC Directive 79/831 Annex V.A8); format: physicochemical
Protocol: The measurements were carried out using an Agilent 1100 LC system with a 50*4.6 Zorbax Eclipse C18 1.8 μm column (oven temperature 55° C., flow rate 2.0 ml/min).
The following mobile phases were used:
Mobile phase A: acetonitrile+1000 μl of formic acid/l
Mobile phase B: Millipore water+900 μl of formic acid/l

[2] = tested on: caterpillars of the armyworm (Spodoptera frugiperda); assay: Spodoptera frugiperda test (SPODFR spray treatment); format: in vivo; details: Spodoptera frugiperda, foliar, read-out: effect in % (caterpillars killed)
Description: Solvent: 78.0 parts by weight of acetone

[3] = tested on: larvae of the mustard beetle (Phaedon cochleariae); assay: Phaedon test (PHAECO spray treatment); details: Phaedon cochleariae, in Brassica rapa, foliar, read-out: effect in % (beetle larvae killed)
[4] = reversed-phase HPLC, Zorbax Eclipse C18 column, by HPLC according to EEC Directive 79/831 Annex V.A8, read-out: log P
[5] = application rate 100 g/ha, maize leaf discs
[6] = reversed-phase HPLC, Zorbax Eclipse C18 column, determined by HPLC according to EEC Directive 79/831 Annex V.A8, read-out: log P

chromatographic logP [1, 4] | chromatographic logP [1, 6] | Structure (SMILES) | chromatographic logP ([1]; log P) | pest or weed control at 100 g/ha ([2]; in Zea mays) [%] | pest or weed control at 100 g/ha [3] [%] | pest or weed control at 100 g/ha [2, 5] [%] | chromatographic logP ([1]; by HPLC according to EEC Directive 79/831 Annex V.A8, read-out: log P)
 |  | CNC(=O)c1cc(C#N)cc(C)c1NC(=O)c1cc(Cn2nnc(C(C)(C)C)n2)nn1-c1ncccc1Cl [Example 101] | 2.62 | ≥ 80 | ≥ 80 |  | 
3.29 |  | Cc1cc(C#N)cc(C(=O)NCC#N)c1NC(=O)c1cc(Cn2nnc(C(F)(C(F)(F)F)C(F)(F)F)n2)nn1-c1ncccc1Cl [Example 374] |  |  | ≥ 80 | ≥ 80 | 
 | 4.73 | Cc1cc(Cl)cc(C(=O)NC(C)(C)C)c1NC(=O)c1cc(Cn2nnc(C(F)(F)C(F)(F)F)n2)nn1-c1ccccc1Cl [Example 535] |  |  | ≥ 80 | ≥ 80 | 
 |  | CCNC(=O)c1cc(Br)cc(C)c1NC(=O)c1cc(Cn2nnc(C(F)(F)F)n2)nn1-c1ncccc1Cl [Example 34] | 3.32 | ≥ 80 | ≥ 80 |  | 
 |  | Cc1cc(C#N)cc(C(=O)NCC2CC2)c1NC(=O)c1cc(Cn2nnc(C(F)(F)C(F)(F)F)n2)nn1-c1ncccc1Cl [Example 138] | 3.56 | ≥ 80 | ≥ 80 |  | 
 | 3.52 | CNC(=O)c1cc(Cl)cc(C)c1NC(=O)c1cc(Cn2nnnc2C(F)(F)F)nn1-c1cc(Cl)ccc1Cl [Example 473] |  |  | ≥ 80 | ≥ 80 | 
 |  | Cc1cc(C#N)cc(C(=O)NCC(F)F)c1NC(=O)c1cc(Cn2nnnc2C(F)(F)F)nn1-c1ncccc1Cl [Example 207] | 2.57 | ≥ 80 | ≥ 80 |  | 
 |  | CSC[C@H](C)NC(=O)c1cc(C#N)cc(C)c1NC(=O)c1cc(Cn2nnc(C(F)(F)C(F)(F)F)n2)nn1-c1ncccc1Cl [Example 216] | 3.68 | ≥ 80 | ≥ 80 |  | 
3.97 |  | CNC(=O)c1cc(Cl)cc(C)c1NC(=O)c1cc(Cn2nnc(C(F)(F)F)n2)nn1-c1ccc(Cl)cc1Cl [Example 239] |  |  | ≥ 80 | ≥ 80 | 
3.28 |  | CNC(=O)c1cc(Br)cc(C)c1NC(=O)c1cc(Cn2nnc(C(F)(F)F)n2)nn1-c1ncccc1C(F)(F)F [Example 228] |  |  | ≥ 80 | ≥ 80 | 
 |  | Cc1cc(Cl)cc(C(=O)NC(C)(C)C)c1NC(=O)c1cc(Cn2nnnc2C(F)(F)F)nn1-c1ncccc1Cl [Example 197] | 3.47 | ≥ 80 | ≥ 80 |  | 
4.3 |  | CSC[C@H](C)NC(=O)c1cc(Cl)cc(Cl)c1NC(=O)c1cc(Cn2nnc(C(F)(C(F)(F)F)C(F)(F)F)n2)nn1-c1ncccc1Cl [Example 394] |  |  | ≥ 80 | ≥ 80 | 
 |  | Cc1cc(I)cc(C(=O)NC(C)(C)C)c1NC(=O)c1cc(Cn2nnc(C(F)(F)C(F)(F)C(F)(F)F)n2)nn1-c1ncccc1Cl [Example 121] |  | ≥ 80 | ≥ 80 |  | 4.86
 |  | Cc1cc(C#N)cc(C(=O)NC(C)C)c1NC(=O)c1cc(Cn2nnnc2C(F)(F)C(F)(F)F)nn1-c1ncccc1Cl [Example 202] | 3.14 | ≥ 80 | ≥ 80 |  | 
 |  | Cc1cc(I)cc(C(N)=O)c1NC(=O)c1cc(Cn2nnc(C(F)(C(F)(F)F)C(F)(F)F)n2)nn1-c1ncccc1Cl [Example 382] | 3.67 | ≥ 80 | ≥ 80 |  | 
 |  | CC(C)NC(=O)c1cc(Cl)cc(Cl)c1NC(=O)c1cc(Cn2nnc(C(F)(C(F)(F)F)C(F)(F)F)n2)nn1-c1ncccc1Cl [Example 389] | 4.12 | ≥ 80 | ≥ 80 |  | 

Structure (SMILES) | chromatographic logP [1, 4] | chromatographic logP [1, 6] | chromatographic logP ([1]; log P) | pest or weed control at 100 g/ha ([2]; in Zea mays) [%] | pest or weed control at 100 g/ha [3] [%] | pest or weed control at 100 g/ha [2, 5] [%] | chromatographic logP ([1]; by HPLC according to EEC Directive 79/831 Annex V.A8, read-out: log P)
CNC(=O)c1cc(C#N)cc(C)c1NC(=O)c1cc(Cn2nnc(C(F)(F)F)n2)nn1-c1ncccc1Cl [Example 12] | 2.66 |  |  | ≥ 80 | ≥ 80 |  | 
